Measured values: ChEMBL document CHEMBL2331473, “Two-component covalent inhibitor” (Bioorg Med Chem, 2013)
The source made the active and inactive calls. The calls are words filed in the database; no cut-off is given here.

Tests used:
Tequatrovirus T4 [1] = test: Inhibition of Enterobacteria phage T4 DNA polymerase using biotin-labeled oligonucleotide hairpin substrate containing pre-reactive group at 3'-end assessed as loss of hairpin substrate elongation product at 10 uM incubated for 15 mins in presence of 4000 fold-excess of non-specific T7 RNA polymerase by PAGE method and filter binding assay
Tequatrovirus T4 [2] = test: Inhibition of Enterobacteria phage T4 DNA polymerase using biotin-labeled oligonucleotide hairpin substrate containing pre-reactive group at 3'-end assessed as loss of hairpin substrate elongation product at 10 uM incubated for 15 mins by PAGE method and filter binding assay

- inhibition (Tequatrovirus T4 [1]): Active
- inhibition (Tequatrovirus T4 [2]): 87%
Structure (SMILES): O=C(CCCc1ccc2ccc3cccc4ccc1c2c34)NC/C=C/c1cn([C@H]2C[C@H](O)[C@@H](COP(=O)(O)OP(=O)(O)OP(=O)(O)O)O2)c(=O)[nH]c1=O
